Experimental data published in patent US10940113B2, “Pharmaceutical composition for colon targeting, method for treating a colon-related disease using the same and preparation method thereof” (priority 2017, dated 2021).

Test system: distal colitis induced via intracolonic injection of DNBS
Assay: DNBS-induced distal colitis animal test
Type: in vivo, Male Wistar mice
Conditions: 2 CAP qd × 7, PO, sacrificed at Day 8
Experimental: […] were starved for 24 hr, and distal colitis was induced via intracolonic injection of DNBS (2,4-dinitrobenzene sulfonic acid, 30 mg in 0.5 mL ethanol (30%)). Then, 2 mL air was injected after instillation of the enema to ensure the solution was remained in the colon. The test substance (the pharmaceutical composition of Embodiment 3-1) and mesalamine were oral administered 24 hr and 2 hr prior to the DNBS injection, followed by administering one dose a day, and 5 days. The total doses of the test substance and mesalamine were 7 doses. The body weight, fecal occult blood and fecal consistency were recorded every day during the experiment. The animals were sacrificed at Day 8. The adhesions of colon and other organs were observed after abdominal opening, the colitis still can be observed, and the colon was carried out and weighted.

For `Nc1ccc(O)c(C(=O)O)c1` [Mesalamine, mesalamine], the Adhesion was 0.0 ± 0.0, the Colon width was 1.0 ± 0.0 and the Strictures was 2.6 ± 0.2. It also gave a Ulcers/Inflammation of 3.2 ± 0.54.
